Experimental data reported in patent publication US20170157110A1, “METHODS FOR INDUCING INSULIN PRODUCTION AND USES THEREOF” (UNIVERSITE DE GENEVE, priority 2014, published 2017).

Tests used:
FoxO1 [1] = biological target: T1, FoxO1 (Mus musculus, UniProt Q9R1E0); set-up: endogenous in cells; host or cells: Somatostatin-Cre; R26-YFP; RIP-DTR mice (pancreatic islets, δ-cells), in vivo; details: oral administration, diabetic db/db mice; cited from earlier work
FoxO1 [2] = biological target: T1, FoxO1; test: Transient FoxO1 inhibition in β-cell-ablated (and non-ablated control) adult Somatostatin-Cre; R26-YFP; RIP-DTR mice: δ-cell conversion into insulin+ cells
β-cells = format: in vivo, mice; details: 2 weeks following DT administration; ablation at 2 weeks of age
α-cells = test: α-cell lineage tracing after β-cell ablation in Glucagon-rtTA; TetO-Cre; R26-YFP; RIP-DTR pups; format: in vivo, mice; details: DT at 2 weeks of age
[3] = administered immediately after DT ablation, analysed 1mpa, adult mice

T1 sequence (Q9R1E0 whole entry): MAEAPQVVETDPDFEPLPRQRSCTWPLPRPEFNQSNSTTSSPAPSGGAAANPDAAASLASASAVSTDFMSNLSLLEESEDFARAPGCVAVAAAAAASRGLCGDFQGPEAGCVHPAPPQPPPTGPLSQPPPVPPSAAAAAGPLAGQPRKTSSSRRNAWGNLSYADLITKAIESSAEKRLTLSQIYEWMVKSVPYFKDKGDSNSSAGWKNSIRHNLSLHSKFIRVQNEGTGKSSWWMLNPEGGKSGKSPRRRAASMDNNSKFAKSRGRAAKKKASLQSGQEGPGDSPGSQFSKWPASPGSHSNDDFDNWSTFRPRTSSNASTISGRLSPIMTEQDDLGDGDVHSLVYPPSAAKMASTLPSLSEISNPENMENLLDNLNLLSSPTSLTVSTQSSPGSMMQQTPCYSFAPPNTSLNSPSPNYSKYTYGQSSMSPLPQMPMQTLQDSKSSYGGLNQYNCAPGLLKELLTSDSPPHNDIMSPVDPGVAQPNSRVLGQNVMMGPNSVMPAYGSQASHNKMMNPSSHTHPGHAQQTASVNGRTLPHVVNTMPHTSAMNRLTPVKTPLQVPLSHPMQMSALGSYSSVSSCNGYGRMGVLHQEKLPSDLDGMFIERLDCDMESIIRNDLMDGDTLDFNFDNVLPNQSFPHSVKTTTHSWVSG

CCn1cc(C(=O)O)c(=O)c2c(N)c(F)c(NC3CCCCC3)cc21 [AS1842856, 5-amino-7-(cyclohexylamino)-1-ethyl-6-fluoro-4-oxo-1,4-dihydroquinoline-3-carboxylic acid]
fasting plasma glucose level (FoxO1 [1]): drastic decrease | insulin+ cells more abundant (FoxO1 [2]; AS1842856 given for 1 week immediately after DT ablation, analysed 1 month post ablation (1mpa), adult mice, 30 mg/kg i.p. daily): 11 fold | fraction of YFP+ cells that expressed insulin only (FoxO1 [2]; [3]): one-fourth | insulin+ cells that were YFP+, i.e. dedifferentiated δ-cells (FoxO1 [2]; [3]): 93% | δ-cell de-differentiation upon transient FoxO1 inhibition (FoxO1 [2]; adult mice, AS1842856 for 1 week): de-differentiate | effect on insulin expression induction (FoxO1 [2]; non-ablated control mice): minimal effect

Diphtheria toxin [DT]
β-cells lost (β-cells): 99% | YFP+/insulin+ (% cells; 1.5 mpa) (α-cells): 0.23%
